Assay results reported in US8324190B2, “Treatment of proliferative disorders with amino-substituted (E)-2,6- dialkoxystyryl 4-substituted benzylsulfones” (Temple University—Of The Commonwealth System of Higher …, priority 2002, dated 2012).
Counter-ions that a name gives are not always drawn.

Experiments:
Assay in all cases: Tumor cell viability assay, Trypan blue exclusion
Type in all cases: cell-based
Conditions in all cases: cell viability after 96 hours
[1] = test system: non-small cell lung carcinoma cell line H157
Description: (§1) BT-20 is an estrogen-unresponsive cell line. NIH/3T3 and HFL are normal murine and human fibroblasts, respectively. BT-20, DLD-1 and H157 were grown in Dulbecco's modified Eagle's medium (DMEM) containing 10% fetal bovine serum supplemented with penicillin and streptomycin. DU145 was cultured in RPMI with 10% fetal bovine serum containing penicillin and streptomycin. NIH3T3 and HFL cells were grown in DMEM containing 10% calf serum supplemented with penicillin and streptomycin. Cells were plated at density levels of 1.0×10^5 cells per well in six-well plates. Cell cultures were maintained at 37° C. in a humidified atmosphere of 5% CO2. Cells were treated with compounds of the invention at various concentrations. Cell viability was determined after 96 hours by the Trypan blue exclusion method. […] The number of viable cells remaining after 96 hours of treatment was determined using hemacytometer following trypan blue staining. The number of viable cells has been plotted as the percent of Vehicle treated (control) cells.

[2] = test system: breast adenocarcinoma cell line BT-20
Description: as §1

[3] = test system: colorectal carcinoma cell line DLD-1
Description: as §1

[4] = test system: prostate carcinoma cell line DU-145
Description: as §1

Measured: IC50

COC(=O)C(F)(F)C(=O)Nc1cc(CS(=O)(=O)/C=C/c2c(OC)cc(OC)cc2OC)ccc1OC [Example 47, (E)-2,4,6-trimethoxystyryl-3-(methyl-2,2-difluoromalonamido)-4-methoxybenzylsulfone]
< 10 µM: all assays above

COc1cc(OC)c(/C=C/S(=O)(=O)Cc2ccc(OC)c(NC(=O)C(F)(F)C(F)(F)C(=O)O)c2)c(OC)c1 [Example 48, (E)-2,4,6-Trimethoxystyryl-3-(2,2,3,3,tetrafluorosuccinamido)-4-methoxybenzylsulfone]
< 10 µM: all assays above

COc1cc(OC)c(/C=C/S(=O)(=O)Cc2ccc(OC)c(NC(=O)CN)c2)c(OC)c1 [Example 49, (E)-2,4,6-Trimethoxy-styryl-3-(aminoacetamido)-4-methoxy-benzylsulfone, hydrochloride]
< 10 µM: all assays above

(E)-2,4,6-Trimethoxystyryl-3-amino-4-methoxybenzylsulfone-D-serineamide [Example 15]
< 10 µM: all assays above

(E)-2,4,6-Trimethoxystyryl-3-amino-4-methoxybenzylsulfone-L-lysineamide [Example 13]
< 10 µM: all assays above

(E)-2,4,6-Trimethoxystyryl-3-amino-4-methoxybenzylsulfone-L-serineamide [Example 14]
< 10 µM: all assays above
